Measurements taken from the NIST ThermoML archive (doi:10.1016/j.fluid.2005.07.009).

Tests used:
[1] = DTA
[2] = Molar enthalpy of transition or fusion; conditions: DSC
[3] = molar heat capacity at constant pressure; conditions: 101.33 kPa, Small sample (50 mg) DSC

CCCCCCCCO [octan-1-ol]
Conditions | Triple point temperature [K]
[1], Crystal | 258.03

NCCCN [1,3-propanediamine]
Crystal 1
Conditions | Molar enthalpy of transition or fusion [kcal/mol] | Triple point temperature [K]
[1] | – | 262.19
[2] | 5.34 | –

[3]
Conditions | molar heat capacity at constant pressure [J/K/mol]
210.17 K, Crystal 2 | 95.15
211.63 K, Crystal 2 | 98.6
212.38 K, Crystal 2 | 99.24
213.45 K, Crystal 2 | 100.56
214.52 K, Crystal 2 | 101.65
215.39 K, Crystal 2 | 102.15
216.89 K, Crystal 2 | 102.21
217.39 K, Crystal 2 | 102.47
218.2 K, Crystal 2 | 103.01
219.56 K, Crystal 2 | 103.15
220.98 K, Crystal 2 | 103.33
221.6 K, Crystal 2 | 104.53
222.57 K, Crystal 2 | 105.45
223.61 K, Crystal 2 | 106.47
224.16 K, Crystal 2 | 106.75
225.7 K, Crystal 2 | 106.91
226.44 K, Crystal 2 | 107.67
226.87 K, Crystal 2 | 108.07
228.09 K, Crystal 2 | 108.1
229.51 K, Crystal 2 | 108.47
230.13 K, Crystal 2 | 109.74
231.59 K, Crystal 2 | 110.88
232.5 K, Crystal 2 | 111.31
233.79 K, Crystal 2 | 111.43
234.58 K, Crystal 2 | 113.62
235.36 K, Crystal 2 | 115.41
237.9 K, Crystal 2 | 116.57
238.39 K, Crystal 2 | 116.7
239.37 K, Crystal 2 | 117.02
240.41 K, Crystal 2 | 119.05
269.31 K, Liquid | 200.32
271.34 K, Liquid | 200.44
273.29 K, Liquid | 200.87
275.36 K, Liquid | 200.94
277.41 K, Liquid | 201.41
279.63 K, Liquid | 201.51
281.55 K, Liquid | 201.82
283.37 K, Liquid | 202.03
285.47 K, Liquid | 202.29
287.35 K, Liquid | 202.53
289.23 K, Liquid | 202.79
291.28 K, Liquid | 203.12
293.27 K, Liquid | 203.44
295.53 K, Liquid | 204.02
297.16 K, Liquid | 204.35
299.44 K, Liquid | 204.4
302.13 K, Liquid | 204.56
304.68 K, Liquid | 204.87
306.46 K, Liquid | 204.95
308.51 K, Liquid | 205.44
310.56 K, Liquid | 205.49
312.42 K, Liquid | 205.78
315.65 K, Liquid | 206.16
317.6 K, Liquid | 206.28
320.27 K, Liquid | 206.67
322.36 K, Liquid | 206.76
325.51 K, Liquid | 207.27
327.54 K, Liquid | 207.43
330.44 K, Liquid | 207.85
333.46 K, Liquid | 207.99

CCCCCCCCCCCO [1-undecanol]
Crystal
Conditions | Molar enthalpy of transition or fusion [kcal/mol] | Triple point temperature [K]
[1] | – | 289.63
[2] | 7.31 | –

[3]
Conditions | molar heat capacity at constant pressure [J/K/mol]
208.41 K, Crystal | 193.11
209.57 K, Crystal | 193.3
210.11 K, Crystal | 194.69
211.02 K, Crystal | 194.71
212.12 K, Crystal | 196.33
213.87 K, Crystal | 198.62
214.48 K, Crystal | 201.14
215.51 K, Crystal | 201.98
216.84 K, Crystal | 205.69
217.02 K, Crystal | 206.89
218.35 K, Crystal | 208.79
219.08 K, Crystal | 211.05
220.29 K, Crystal | 213.58
221.74 K, Crystal | 215.54
222.1 K, Crystal | 216.27
223.31 K, Crystal | 218.06
224.39 K, Crystal | 219.4
225.72 K, Crystal | 221.14
226.26 K, Crystal | 221.42
227.04 K, Crystal | 223.37
228.49 K, Crystal | 225.69
229.28 K, Crystal | 228.09
230 K, Crystal | 228.5
231.02 K, Crystal | 229.81
232.16 K, Crystal | 232.96
233.13 K, Crystal | 234.38
234.75 K, Crystal | 235.74
235.83 K, Crystal | 237.03
236.92 K, Crystal | 238.89
237.34 K, Crystal | 238.93
238.6 K, Crystal | 239.94
239.8 K, Crystal | 239.99
241.66 K, Crystal | 243.63
243.34 K, Crystal | 245.99
244.18 K, Crystal | 246.89
246.11 K, Crystal | 250.54
297.08 K, Liquid | 405.86
298.17 K, Liquid | 407.32
299.23 K, Liquid | 408.96
300.25 K, Liquid | 409.93
301.38 K, Liquid | 411.68
302.21 K, Liquid | 412.61
303.18 K, Liquid | 413.77
304.11 K, Liquid | 414.87
305.18 K, Liquid | 415.8
306.27 K, Liquid | 417.37
307.49 K, Liquid | 418.89
308.58 K, Liquid | 419.76
309.32 K, Liquid | 421.18
310.02 K, Liquid | 422.07
311.09 K, Liquid | 423.23
312.51 K, Liquid | 425.11
313.48 K, Liquid | 426.38
314.66 K, Liquid | 427.93
315.71 K, Liquid | 429.81
316.18 K, Liquid | 430
318.29 K, Liquid | 432.46
320.24 K, Liquid | 435.26
321.15 K, Liquid | 436.27
323.33 K, Liquid | 439.56

CCCCCCCCCO [nonan-1-ol]
Crystal
Conditions | Molar enthalpy of transition or fusion [kcal/mol] | Triple point temperature [K]
[1] | – | 268.1
[2] | 5.87 | –

CCCCCCCCN [1-octanamine]
Conditions | Molar enthalpy of transition or fusion [kcal/mol]
[2], Crystal | 8.3

[3]
Conditions | molar heat capacity at constant pressure [J/K/mol]
214.08 K, Crystal | 167.97
215.55 K, Crystal | 170.58
217.65 K, Crystal | 171.84
218.54 K, Crystal | 174.15
220.18 K, Crystal | 175.59
221.56 K, Crystal | 175.94
223.07 K, Crystal | 176.5
224.56 K, Crystal | 177.92
226.18 K, Crystal | 179.15
227.54 K, Crystal | 180.21
229.16 K, Crystal | 180.94
230.51 K, Crystal | 183.42
232.12 K, Crystal | 185.1
233.53 K, Crystal | 186.36
235.26 K, Crystal | 187
236.54 K, Crystal | 188.74
238.13 K, Crystal | 189.62
239.53 K, Crystal | 191.53
241.11 K, Crystal | 193.65
242.56 K, Crystal | 195.03
244.04 K, Crystal | 196.53
245.1 K, Crystal | 197.38
246.25 K, Crystal | 197.77
247.23 K, Crystal | 198.38
248.63 K, Crystal | 203.31
249.05 K, Crystal | 203.59
249.65 K, Crystal | 203.61
251.8 K, Crystal | 204.04
252.23 K, Crystal | 204.62
253.02 K, Crystal | 206.62
295.09 K, Liquid | 304.31
295.53 K, Liquid | 304.33
296.13 K, Liquid | 304.35
296.41 K, Liquid | 304.94
297.1 K, Liquid | 304.99
297.32 K, Liquid | 305.36
298.16 K, Liquid | 305.42
298.58 K, Liquid | 305.98
299.02 K, Liquid | 306.08
299.35 K, Liquid | 306.45
300.13 K, Liquid | 306.53
300.53 K, Liquid | 306.69
301.18 K, Liquid | 307.19
301.52 K, Liquid | 307.31
302.16 K, Liquid | 307.33
302.56 K, Liquid | 307.36
303.28 K, Liquid | 307.81
303.51 K, Liquid | 308.08
304.44 K, Liquid | 308.1
304.71 K, Liquid | 308.11
304.99 K, Liquid | 308.47
305.64 K, Liquid | 308.51
306.11 K, Liquid | 308.52
306.59 K, Liquid | 308.6
307.38 K, Liquid | 308.63
307.5 K, Liquid | 308.83
308.05 K, Liquid | 308.92
308.54 K, Liquid | 309.05
309.16 K, Liquid | 309.12
309.24 K, Liquid | 309.24
310.24 K, Liquid | 309.3
310.53 K, Liquid | 309.35
311.07 K, Liquid | 309.39
311.51 K, Liquid | 310.16
312.64 K, Liquid | 310.21
313.22 K, Liquid | 310.76

CCCCCCCCCCO [decan-1-ol]
Crystal
Conditions | Molar enthalpy of transition or fusion [kcal/mol] | Triple point temperature [K]
[1] | – | 278.67
[2] | 7.5 | –

[3]
Conditions | molar heat capacity at constant pressure [J/K/mol]
215.12 K, Crystal | 224.54
216.09 K, Crystal | 227.81
217.28 K, Crystal | 228.07
218.46 K, Crystal | 228.68
219.05 K, Crystal | 228.9
219.59 K, Crystal | 229.05
222.22 K, Crystal | 229.19
222.81 K, Crystal | 230.27
223.03 K, Crystal | 230.39
226.41 K, Crystal | 231.18
227.05 K, Crystal | 232.61
229.62 K, Crystal | 232.81
230.15 K, Crystal | 233.54
231.71 K, Crystal | 234.37
232.3 K, Crystal | 234.76
233.74 K, Crystal | 235.5
234.54 K, Crystal | 235.92
235.82 K, Crystal | 237.25
236.3 K, Crystal | 237.29
237.11 K, Crystal | 238.88
238.28 K, Crystal | 239.81
239.94 K, Crystal | 240.28
240.47 K, Crystal | 240.35
241.16 K, Crystal | 241
242.71 K, Crystal | 241.58
244.15 K, Crystal | 244.94
246.13 K, Crystal | 245.49
248.85 K, Crystal | 245.75
249.22 K, Crystal | 246.47
250.88 K, Crystal | 247.17
251.14 K, Crystal | 247.6
252.58 K, Crystal | 250.51
253.49 K, Crystal | 252.9
284.18 K, Liquid | 357.16
285.11 K, Liquid | 357.65
286.23 K, Liquid | 359.66
287.17 K, Liquid | 360.07
288.21 K, Liquid | 361.72
289.63 K, Liquid | 363.32
290.29 K, Liquid | 363.87
291.08 K, Liquid | 364.63
292.13 K, Liquid | 366.29
293.23 K, Liquid | 366.99
294.29 K, Liquid | 368.16
295.69 K, Liquid | 369.19
296.43 K, Liquid | 370.09
297.49 K, Liquid | 370.33
298.55 K, Liquid | 373
299.51 K, Liquid | 374.14
300.21 K, Liquid | 375.31
301.18 K, Liquid | 375.74
302.45 K, Liquid | 377.89
304.22 K, Liquid | 380.22
305.31 K, Liquid | 381.17
306.42 K, Liquid | 382.5
307.18 K, Liquid | 383.77
308.14 K, Liquid | 384.86
